# From patent US9695155B2, “Herbicidal substituted pyrimidinyloxy benzene compounds” (E. I. DU PONT DE NEMOURS AND COMPANY, priority 2013, dated 2017)
# Tests used:
# giant foxtail = experiment: Test A preemergence; format: in vivo, Setaria faberii; details: for Plant response rating, Foxtail, Giant: 125 g ai/ha, 0 to 100 scale where 0 is no effect and 100 is complete control; for Foxtail, Giant plant response rating: 500 g ai/ha, 0 to 100 scale, 0 no effect, 100 complete control, approx. 10 days
# Method in brief: (§1)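 Pre- and postemergence greenhouse screen. Soil: loam + sand. Spray carrier: solvent mixture, non-phytotoxic, with surfactant. Post timing at 1–2 leaves, height 2–10 cm. Readout: visual injury on a 0–100 scale roughly 10 days after application, untreated plants as reference.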
# corn = experiment: Test A preemergence; format: in vivo, Zea mays; details: for Plant response rating, Corn: 125 g ai/ha, 0 to 100 scale where 0 is no effect and 100 is complete control; for Corn plant response rating: 500 g ai/ha, 0 to 100 scale, 0 no effect, 100 complete control, approx. 10 days
# Method in brief: as §1
# rice = experiment: Test B flooded paddy test; format: in vivo, Oryza sativa; details: Flood, 250 g ai/ha; 0 to 100 scale where 0 is no effect and 100 is complete control
# Method in brief: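 Evaluation is visual, against untreated controls, 13 to 15 days after treatment. Before treatment, plants reached the 2-leaf stage; pots were then flooded 3 cm deep, compound was added to the water, and that level was maintained. Ratings run 0 to 100, with 100 meaning complete control.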
# yellow nutsedge [1] = experiment: Test C preemergence; format: in vivo, Cyperus esculentus; details: for Nutsedge, Yellow plant response rating: preemergence; for Plant response rating, Nutsedge, Yellow: Preemergence, 31 g ai/ha, scale 0 to 100, 0 no effect, 100 complete control
# Method in brief: (§2)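 Plants were kept under greenhouse conditions for 13–15 days following spray. Pre-emergent application went to soil (loam–sand), post-emergent to foliage at 1–4 leaves. Evaluation: visual, percent control against untreated checks.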
# pigweed [2] = experiment: Test C preemergence; format: in vivo, Amaranthus retroflexus; details: for Pigweed plant response rating: preemergence; for Plant response rating, Pigweed: Preemergence, 31 g ai/ha, scale 0 to 100, 0 no effect, 100 complete control
# Method in brief: as §2
# soybean = experiment: Test C preemergence; format: in vivo, Glycine max; details: for Soybean plant response rating: preemergence; for Plant response rating, Soybean: Preemergence, 31 g ai/ha, scale 0 to 100, 0 no effect, 100 complete control
# Method in brief: as §2
# velvetleaf = experiment: Test C preemergence; format: in vivo, Abutilon theophrasti; details: for Velvetleaf plant response rating: preemergence; for Plant response rating, Velvetleaf: Preemergence, 31 g ai/ha, scale 0 to 100, 0 no effect, 100 complete control
# Method in brief: as §2
# blackgrass = experiment: Test C postemergence; format: in vivo, Alopecurus myosuroides; details: for Plant response rating, Blackgrass / Blackgrass plant response rating: scale 0 to 100 (0 no effect, 100 complete control); for Blackgrass plant response rating: 16 g ai/ha
# Method in brief: as §2
# Italian ryegrass = experiment: Test C postemergence; format: in vivo, Lolium multiflorum; details: for Plant response rating, Ryegrass, Italian: scale 0 to 100 (0 no effect, 100 complete control)
# Method in brief: as §2
# wheat, winter = experiment: Test C postemergence; format: in vivo, Triticum aestivum; details: for Plant response rating, Wheat: scale 0 to 100 (0 no effect, 100 complete control)
# Method in brief: as §2
# lambsquarters = experiment: Test C postemergence; format: in vivo, Chenopodium album; details: for Plant response rating, Lambsquarters: scale 0 to 100 (0 no effect, 100 complete control)
# Method in brief: as §2
# yellow nutsedge [3] = experiment: Test C postemergence; format: in vivo, Cyperus esculentus; details: for Plant response rating, Nutsedge, Yellow: scale 0 to 100 (0 no effect, 100 complete control)
# Method in brief: as §2
# pigweed [4] = experiment: Test C postemergence; format: in vivo, Amaranthus retroflexus; details: for Plant response rating, Pigweed: scale 0 to 100 (0 no effect, 100 complete control)
# Method in brief: as §2
# ragweed = experiment: Test C postemergence; format: in vivo, Ambrosia elatior; details: for Plant response rating, Ragweed: scale 0 to 100 (0 no effect, 100 complete control)
# Method in brief: as §2
# wild oat = experiment: Test C postemergence; format: in vivo, Avena fatua; details: for Plant response rating, Oat, Wild: scale 0 to 100 (0 no effect, 100 complete control)
# Method in brief: as §2
# [5] = 62 g ai/ha, scale 0 (no effect) to 100 (complete control)
# [6] = 125 g ai/ha, scale 0 (no effect) to 100 (complete control)
# [7] = 250 g ai/ha, scale 0 (no effect) to 100 (complete control)
# [8] = Postemergence, 31 g ai/ha, 13 to 15 days
# [9] = 16 g ai/ha, scale 0 to 100 (0 no effect, 100 complete control)
# [10] = postemergence, visual rating, 13 to 15 days
# [11] = 125 g ai/ha, postemergence, visual rating
smiles,measurement,setting,value
N#Cc1cccc(Oc2ncc(F)cn2)c1-n1cc(Cl)cn1 [Compound 73],"Plant response rating, Foxtail, Giant",giant foxtail,100
same,"Foxtail, Giant plant response rating",giant foxtail,100
same,"Plant response rating, Corn",corn,20
same,Corn plant response rating,corn,70
same,"Plant response rating, Rice",rice,0
same,"Nutsedge, Yellow plant response rating",yellow nutsedge [1]; [5],0
same,"Nutsedge, Yellow plant response rating",yellow nutsedge [1]; [6],5
same,"Nutsedge, Yellow plant response rating",yellow nutsedge [1]; [7],15
same,"Plant response rating, Nutsedge, Yellow",yellow nutsedge [1],0
same,Pigweed plant response rating,pigweed [2]; [5],100
same,Pigweed plant response rating,pigweed [2]; [6],100
same,Pigweed plant response rating,pigweed [2]; [7],100
same,"Plant response rating, Pigweed",pigweed [2],100
same,Soybean plant response rating,soybean; [5],60
same,Soybean plant response rating,soybean; [6],75
same,Soybean plant response rating,soybean; [7],90
same,Velvetleaf plant response rating,velvetleaf; [5],75
same,Velvetleaf plant response rating,velvetleaf; [6],100
same,Velvetleaf plant response rating,velvetleaf; [7],100
same,"Plant response rating, Velvetleaf",velvetleaf,60
same,"Plant response rating (0 to 100), Blackgrass","blackgrass; 125 g ai/ha, postemergence",5
same,"Plant response rating (0 to 100), Blackgrass","blackgrass; 250 g ai/ha, postemergence",25
same,"Plant response rating, Blackgrass",blackgrass; [8],0
same,"Plant response rating, Blackgrass","blackgrass; Postemergence, 62 g ai/ha",0
same,"Plant response rating (0 to 100), Ryegrass, Italian","Italian ryegrass; 125 g ai/ha, postemergence",0
same,"Plant response rating (0 to 100), Ryegrass, Italian","Italian ryegrass; 250 g ai/ha, postemergence",5
same,"Plant response rating, Ryegrass, Italian",Italian ryegrass; [8],0
same,"Plant response rating, Ryegrass, Italian","Italian ryegrass; Postemergence, 62 g ai/ha",0
same,"Plant response rating (0 to 100), Wheat","wheat, winter; 125 g ai/ha, postemergence",0
same,"Plant response rating (0 to 100), Wheat","wheat, winter; 250 g ai/ha, postemergence",5
same,"Plant response rating, Wheat","wheat, winter; [8]",0
same,"Plant response rating, Wheat","wheat, winter; Postemergence, 62 g ai/ha",0
same,"Plant response rating (0 to 100), Lambsquarters","lambsquarters; 125 g ai/ha, postemergence",70
same,"Plant response rating (0 to 100), Lambsquarters","lambsquarters; 250 g ai/ha, postemergence",80
same,"Plant response rating, Lambsquarters",lambsquarters; [8],25
same,"Plant response rating, Lambsquarters","lambsquarters; Postemergence, 62 g ai/ha",55
same,"Plant response rating (0 to 100), Nutsedge, Yellow","yellow nutsedge [3]; 125 g ai/ha, postemergence",5
same,"Plant response rating (0 to 100), Nutsedge, Yellow","yellow nutsedge [3]; 250 g ai/ha, postemergence",5
same,"Plant response rating, Nutsedge, Yellow",yellow nutsedge [3]; [8],0
same,"Plant response rating, Nutsedge, Yellow","yellow nutsedge [3]; Postemergence, 62 g ai/ha",0
same,"Plant response rating (0 to 100), Pigweed","pigweed [4]; 125 g ai/ha, postemergence",80
same,"Plant response rating (0 to 100), Pigweed","pigweed [4]; 250 g ai/ha, postemergence",90
same,"Plant response rating, Pigweed",pigweed [4]; [8],45
same,"Plant response rating, Pigweed","pigweed [4]; Postemergence, 62 g ai/ha",70
same,"Plant response rating (0 to 100), Ragweed","ragweed; 125 g ai/ha, postemergence",50
same,"Plant response rating (0 to 100), Ragweed","ragweed; 250 g ai/ha, postemergence",65
same,"Plant response rating, Ragweed",ragweed; [8],30
same,"Plant response rating, Ragweed","ragweed; Postemergence, 62 g ai/ha",35
same,"Plant response rating (0 to 100), Oat, Wild","wild oat; 125 g ai/ha, postemergence",10
same,"Plant response rating (0 to 100), Oat, Wild","wild oat; 250 g ai/ha, postemergence",15
same,"Plant response rating, Oat, Wild",wild oat; [8],5
same,"Plant response rating, Oat, Wild","wild oat; Postemergence, 62 g ai/ha",5
CCOc1cnn(-c2c(C#N)cccc2Oc2ncc(Cl)cn2)c1 [Compound 92],"Plant response rating, Foxtail, Giant",giant foxtail,100
same,"Foxtail, Giant plant response rating",giant foxtail,100
same,"Plant response rating, Corn",corn,10
same,Corn plant response rating,corn,40
same,"Plant response rating, Rice",rice,20
same,"Nutsedge, Yellow plant response rating",yellow nutsedge [1]; [9],5
same,"Nutsedge, Yellow plant response rating",yellow nutsedge [1]; [5],50
same,"Nutsedge, Yellow plant response rating",yellow nutsedge [1]; [6],75
same,"Plant response rating, Nutsedge, Yellow",yellow nutsedge [1],5
same,Pigweed plant response rating,pigweed [2]; [9],90
same,Pigweed plant response rating,pigweed [2]; [5],100
same,Pigweed plant response rating,pigweed [2]; [6],100
same,"Plant response rating, Pigweed",pigweed [2],85
same,Soybean plant response rating,soybean; [9],30
same,Soybean plant response rating,soybean; [5],80
same,Soybean plant response rating,soybean; [6],95
same,"Plant response rating, Soybean",soybean,65
same,Velvetleaf plant response rating,velvetleaf; [9],30
same,Velvetleaf plant response rating,velvetleaf; [5],100
same,Velvetleaf plant response rating,velvetleaf; [6],100
same,"Plant response rating, Velvetleaf",velvetleaf,90
same,Blackgrass plant response rating,blackgrass; [10],0
same,"Plant response rating (0 to 100), Blackgrass","blackgrass; 125 g ai/ha, postemergence",35
same,"Plant response rating, Blackgrass",blackgrass; [8],0
same,"Plant response rating, Blackgrass","blackgrass; Postemergence, 62 g ai/ha",10
same,"Plant response rating (0 to 100), Ryegrass, Italian","Italian ryegrass; 125 g ai/ha, postemergence",35
same,"Plant response rating, Ryegrass, Italian",Italian ryegrass; [8],5
same,"Plant response rating, Ryegrass, Italian","Italian ryegrass; Postemergence, 62 g ai/ha",5
same,"Plant response rating (0 to 100), Wheat","wheat, winter; 125 g ai/ha, postemergence",5
same,"Plant response rating, Wheat","wheat, winter; [8]",0
same,"Plant response rating, Wheat","wheat, winter; Postemergence, 62 g ai/ha",0
same,"Plant response rating (0 to 100), Lambsquarters","lambsquarters; 125 g ai/ha, postemergence",75
same,"Plant response rating, Lambsquarters",lambsquarters; [8],35
same,"Plant response rating, Lambsquarters","lambsquarters; Postemergence, 62 g ai/ha",40
same,"Plant response rating (0 to 100), Nutsedge, Yellow","yellow nutsedge [3]; 125 g ai/ha, postemergence",5
same,"Plant response rating, Nutsedge, Yellow",yellow nutsedge [3]; [8],5
same,"Plant response rating, Nutsedge, Yellow","yellow nutsedge [3]; Postemergence, 62 g ai/ha",5
same,"Plant response rating (0 to 100), Pigweed","pigweed [4]; 125 g ai/ha, postemergence",75
same,"Plant response rating, Pigweed",pigweed [4]; [8],60
same,"Plant response rating, Pigweed","pigweed [4]; Postemergence, 62 g ai/ha",55
same,"Plant response rating (0 to 100), Ragweed","ragweed; 125 g ai/ha, postemergence",55
same,"Plant response rating, Ragweed",ragweed; [8],40
same,"Plant response rating, Ragweed","ragweed; Postemergence, 62 g ai/ha",50
same,"Plant response rating (0 to 100), Oat, Wild","wild oat; 125 g ai/ha, postemergence",15
same,"Plant response rating, Oat, Wild",wild oat; [8],5
same,"Plant response rating, Oat, Wild","wild oat; Postemergence, 62 g ai/ha",10
N#Cc1cnn(-c2c(C#N)cccc2Oc2ncc(F)cn2)c1 [Compound 111],"Plant response rating, Foxtail, Giant",giant foxtail,100
same,"Foxtail, Giant plant response rating",giant foxtail,100
same,"Plant response rating, Corn",corn,20
same,Corn plant response rating,corn,50
same,"Plant response rating, Rice",rice,0
same,"Nutsedge, Yellow plant response rating",yellow nutsedge [1]; [9],0
same,"Nutsedge, Yellow plant response rating",yellow nutsedge [1]; [5],15
same,"Nutsedge, Yellow plant response rating",yellow nutsedge [1]; [6],50
same,"Plant response rating, Nutsedge, Yellow",yellow nutsedge [1],0
same,Pigweed plant response rating,pigweed [2]; [9],75
same,Pigweed plant response rating,pigweed [2]; [5],100
same,Pigweed plant response rating,pigweed [2]; [6],100
same,"Plant response rating, Pigweed",pigweed [2],95
same,Soybean plant response rating,soybean; [9],30
same,Soybean plant response rating,soybean; [5],80
same,Soybean plant response rating,soybean; [6],95
same,"Plant response rating, Soybean",soybean,60
same,Velvetleaf plant response rating,velvetleaf; [9],60
same,Velvetleaf plant response rating,velvetleaf; [5],90
same,Velvetleaf plant response rating,velvetleaf; [6],100
same,"Plant response rating, Velvetleaf",velvetleaf,60
same,Blackgrass plant response rating,blackgrass; [10],0
same,"Plant response rating, Blackgrass",blackgrass; [11],10
same,"Plant response rating, Blackgrass",blackgrass; [8],0
same,"Plant response rating, Blackgrass","blackgrass; Postemergence, 62 g ai/ha",5
same,"Plant response rating, Ryegrass, Italian",Italian ryegrass; [11],0
same,"Plant response rating, Ryegrass, Italian","Italian ryegrass; Postemergence, 62 g ai/ha",0
same,"Plant response rating, Wheat","wheat, winter; [11]",5
same,"Plant response rating, Wheat","wheat, winter; Postemergence, 62 g ai/ha",0
same,"Plant response rating, Lambsquarters",lambsquarters; [11],90
same,"Plant response rating, Lambsquarters","lambsquarters; Postemergence, 62 g ai/ha",80
same,"Plant response rating, Nutsedge, Yellow",yellow nutsedge [3]; [11],5
same,"Plant response rating, Nutsedge, Yellow","yellow nutsedge [3]; Postemergence, 62 g ai/ha",5
same,"Plant response rating, Pigweed",pigweed [4]; [11],85
same,"Plant response rating, Pigweed","pigweed [4]; Postemergence, 62 g ai/ha",85
same,"Plant response rating, Ragweed",ragweed; [11],90
same,"Plant response rating, Ragweed","ragweed; Postemergence, 62 g ai/ha",70
same,"Plant response rating, Oat, Wild",wild oat; [11],5
same,"Plant response rating, Oat, Wild","wild oat; Postemergence, 62 g ai/ha",5
